These results are taken from ChEMBL document CHEMBL5614382, “Discovery of a new 1-(phenylsulfonyl)-1H-indole derivative targeting the EphA2 receptor with antiproliferative activity on U251 glioblastoma cell line” (Eur J Med Chem, 2024).

Assay [1] addresses T1, Ephrin type-B receptor 3 (Mus musculus, UniProt P54754).
T1 sequence (P54754 whole entry): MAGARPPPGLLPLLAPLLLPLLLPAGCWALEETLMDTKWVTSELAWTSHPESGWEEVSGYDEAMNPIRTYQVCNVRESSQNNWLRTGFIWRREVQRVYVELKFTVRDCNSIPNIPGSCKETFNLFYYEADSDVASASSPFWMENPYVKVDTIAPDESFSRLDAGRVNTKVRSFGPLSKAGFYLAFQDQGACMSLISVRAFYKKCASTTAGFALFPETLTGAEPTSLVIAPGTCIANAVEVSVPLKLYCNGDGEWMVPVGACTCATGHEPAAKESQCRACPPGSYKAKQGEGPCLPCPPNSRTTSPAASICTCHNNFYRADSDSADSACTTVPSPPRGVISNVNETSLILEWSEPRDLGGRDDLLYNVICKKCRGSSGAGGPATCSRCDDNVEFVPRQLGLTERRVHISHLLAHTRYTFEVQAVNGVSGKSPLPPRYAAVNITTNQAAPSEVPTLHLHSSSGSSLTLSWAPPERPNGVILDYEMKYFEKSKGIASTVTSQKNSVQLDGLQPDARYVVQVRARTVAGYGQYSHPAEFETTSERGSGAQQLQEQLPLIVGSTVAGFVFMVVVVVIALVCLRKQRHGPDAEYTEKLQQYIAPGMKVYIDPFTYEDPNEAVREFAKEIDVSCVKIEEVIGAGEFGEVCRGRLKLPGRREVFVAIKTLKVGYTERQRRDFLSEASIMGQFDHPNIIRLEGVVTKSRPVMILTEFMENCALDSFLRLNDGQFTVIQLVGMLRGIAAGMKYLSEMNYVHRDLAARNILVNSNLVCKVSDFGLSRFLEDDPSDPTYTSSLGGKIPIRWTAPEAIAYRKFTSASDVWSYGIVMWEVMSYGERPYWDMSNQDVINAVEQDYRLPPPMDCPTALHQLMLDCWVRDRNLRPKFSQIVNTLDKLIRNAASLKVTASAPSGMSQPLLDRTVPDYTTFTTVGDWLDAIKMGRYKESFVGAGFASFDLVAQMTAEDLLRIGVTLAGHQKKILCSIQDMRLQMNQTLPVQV
In words: Displacement of biotinylated Fc-tagged ephrin-B1 from recombinant mouse EphB3 (Leu 30 to Thru537 residues) preincubated for 1 hr followed by ephrin-B1-Fc addition and measured after 4 to 5 hrs by ELISA assay.

The target of assay [2] is T2, Ephrin type-A receptor 2 (Mus musculus, UniProt Q03145). In words: Displacement of biotinylated Fc-tagged ephrin-A1 from C/N-terminal 6-His tagged mouse recombinant EphA2 (Ala22 to Ala535 residues) preincubated for 1 hr followed by ephrin-A1-Fc addition and measured after 4 to 5 hrs by ELISA assay.
T2 sequence (Q03145 whole entry): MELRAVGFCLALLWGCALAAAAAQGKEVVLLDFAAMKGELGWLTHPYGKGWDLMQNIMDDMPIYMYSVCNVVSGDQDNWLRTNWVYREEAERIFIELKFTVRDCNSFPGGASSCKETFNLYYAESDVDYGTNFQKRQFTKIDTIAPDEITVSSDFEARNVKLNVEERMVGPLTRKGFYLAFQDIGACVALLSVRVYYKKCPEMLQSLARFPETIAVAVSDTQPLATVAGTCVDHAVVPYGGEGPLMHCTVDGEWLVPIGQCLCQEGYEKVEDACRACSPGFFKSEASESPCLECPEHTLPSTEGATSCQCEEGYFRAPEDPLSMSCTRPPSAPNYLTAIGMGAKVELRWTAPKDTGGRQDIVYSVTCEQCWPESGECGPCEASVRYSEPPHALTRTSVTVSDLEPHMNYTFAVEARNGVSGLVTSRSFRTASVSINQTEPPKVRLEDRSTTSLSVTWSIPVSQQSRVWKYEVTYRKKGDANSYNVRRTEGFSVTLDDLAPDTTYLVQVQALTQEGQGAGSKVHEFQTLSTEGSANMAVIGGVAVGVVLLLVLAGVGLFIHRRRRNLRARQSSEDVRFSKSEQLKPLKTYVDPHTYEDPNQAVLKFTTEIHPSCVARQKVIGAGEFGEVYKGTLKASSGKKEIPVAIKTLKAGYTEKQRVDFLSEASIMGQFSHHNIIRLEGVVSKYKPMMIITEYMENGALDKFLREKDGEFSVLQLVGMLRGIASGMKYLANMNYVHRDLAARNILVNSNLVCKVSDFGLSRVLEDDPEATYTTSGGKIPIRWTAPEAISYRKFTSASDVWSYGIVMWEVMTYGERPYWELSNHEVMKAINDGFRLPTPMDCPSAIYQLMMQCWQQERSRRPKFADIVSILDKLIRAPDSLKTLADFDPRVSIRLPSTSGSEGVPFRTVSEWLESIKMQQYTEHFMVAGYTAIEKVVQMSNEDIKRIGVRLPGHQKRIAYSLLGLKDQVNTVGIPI
Assay [3] has as its target T3, Ephrin type-B receptor 2 (Mus musculus, UniProt P54763).
T3 sequence (P54763 whole entry): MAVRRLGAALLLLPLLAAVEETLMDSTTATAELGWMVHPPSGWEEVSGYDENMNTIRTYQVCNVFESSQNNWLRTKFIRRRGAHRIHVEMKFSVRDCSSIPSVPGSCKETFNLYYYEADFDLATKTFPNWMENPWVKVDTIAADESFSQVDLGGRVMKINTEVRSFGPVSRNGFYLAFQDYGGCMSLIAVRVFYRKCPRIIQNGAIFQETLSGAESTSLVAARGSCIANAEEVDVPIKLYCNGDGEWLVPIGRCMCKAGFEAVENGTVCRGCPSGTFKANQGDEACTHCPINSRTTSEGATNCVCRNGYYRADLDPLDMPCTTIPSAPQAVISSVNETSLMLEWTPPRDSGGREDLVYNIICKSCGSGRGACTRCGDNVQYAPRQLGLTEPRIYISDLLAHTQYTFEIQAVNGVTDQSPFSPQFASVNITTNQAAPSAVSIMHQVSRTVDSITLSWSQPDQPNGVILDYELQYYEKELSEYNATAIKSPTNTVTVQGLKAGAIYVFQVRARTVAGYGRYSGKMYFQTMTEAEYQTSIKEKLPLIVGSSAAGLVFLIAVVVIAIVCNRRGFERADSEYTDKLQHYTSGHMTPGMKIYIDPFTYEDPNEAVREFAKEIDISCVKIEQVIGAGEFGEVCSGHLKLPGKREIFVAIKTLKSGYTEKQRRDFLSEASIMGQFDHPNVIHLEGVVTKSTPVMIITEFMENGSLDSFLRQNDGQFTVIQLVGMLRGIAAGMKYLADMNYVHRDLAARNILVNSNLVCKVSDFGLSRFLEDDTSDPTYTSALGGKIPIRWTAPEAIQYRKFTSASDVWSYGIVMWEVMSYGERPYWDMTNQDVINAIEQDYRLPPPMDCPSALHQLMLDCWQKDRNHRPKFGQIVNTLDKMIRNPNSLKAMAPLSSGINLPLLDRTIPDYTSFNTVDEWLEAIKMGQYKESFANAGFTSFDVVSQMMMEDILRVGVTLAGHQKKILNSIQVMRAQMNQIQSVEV
Briefly: Displacement of biotinylated Fc-tagged ephrin-B1 from recombinant N/C-terminal 6-his tagged mouse EphB2 (Val27 to Lys548 residues) preincubated for 1 hr followed by ephrin-B1-Fc addition and measured after 4 to 5 hrs by ELISA assay.

Assay [4] addresses T2, Ephrin type-A receptor 2. Briefly: Displacement of biotinylated Fc-tagged ephrin-A1 from C/N-terminal 6-His tag mouse recombinant EphA2 (Ala22 to Ala535 residues) assessed as inhibition constant preincubated for 1 hr followed by ephrin-A1-Fc addition and measured after 4 to 5 hrs by ELISA assay.
Assay [5] concerns U-251. Briefly: Effect on EphA2 protein level in human U-251 cells in presence of ephrin-A1 at 30 uM incubated for 4 hrs by ELISA assay. Format: functional, cell-based.
Assay [6] deals with Ephrin type-A receptor 2 (Homo sapiens) (UniProt P29317). In words: Antagonist activity at EphA2 in human U-251 cells assessed as inhibition of EphA2 phosphorylation at 10 to 30 uM preincubated for 20 mins followed by ephrin-A1-Fc addition and measured after 10 mins by ELISA assay. Format: cell-based. Particulars: filed as antagonist, dose 10-30 µM, time 30.0 min.
Chain of Ephrin type-A receptor 2 (Homo sapiens) (P29317 whole entry): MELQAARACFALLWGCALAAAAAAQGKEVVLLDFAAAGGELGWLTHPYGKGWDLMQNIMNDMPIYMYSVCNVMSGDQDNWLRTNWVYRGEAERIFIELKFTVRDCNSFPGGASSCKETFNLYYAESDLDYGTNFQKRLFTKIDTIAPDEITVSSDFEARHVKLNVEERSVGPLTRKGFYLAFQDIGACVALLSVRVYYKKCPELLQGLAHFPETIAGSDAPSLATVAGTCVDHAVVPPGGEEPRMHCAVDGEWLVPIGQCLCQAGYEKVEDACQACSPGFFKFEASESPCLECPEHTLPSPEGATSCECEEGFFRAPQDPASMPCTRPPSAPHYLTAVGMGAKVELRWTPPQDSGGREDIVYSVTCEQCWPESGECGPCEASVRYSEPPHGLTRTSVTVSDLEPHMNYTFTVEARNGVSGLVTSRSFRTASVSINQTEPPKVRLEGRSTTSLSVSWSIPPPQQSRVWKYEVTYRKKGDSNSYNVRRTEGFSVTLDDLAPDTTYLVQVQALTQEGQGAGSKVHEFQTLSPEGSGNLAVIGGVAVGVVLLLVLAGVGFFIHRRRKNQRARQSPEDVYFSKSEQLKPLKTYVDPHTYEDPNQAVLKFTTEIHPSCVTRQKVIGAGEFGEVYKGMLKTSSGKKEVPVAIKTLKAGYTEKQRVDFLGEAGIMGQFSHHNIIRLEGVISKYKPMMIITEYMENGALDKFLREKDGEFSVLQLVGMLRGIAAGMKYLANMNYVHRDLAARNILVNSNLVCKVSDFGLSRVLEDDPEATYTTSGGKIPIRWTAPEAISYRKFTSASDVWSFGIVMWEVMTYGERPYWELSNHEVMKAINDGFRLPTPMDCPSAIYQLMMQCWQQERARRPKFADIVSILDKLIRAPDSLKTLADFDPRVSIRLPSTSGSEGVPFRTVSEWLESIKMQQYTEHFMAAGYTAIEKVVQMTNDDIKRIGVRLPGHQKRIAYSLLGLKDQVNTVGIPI
In assay [7] the test system is U-251. In words: Antiproliferative activity against human U-251 cells assessed as inhibition of cell growth at 10 uM measured after 72 hrs by MTT assay. Format: functional, cell-based.
Assay [8] relates to U-251. Briefly: Antiproliferative activity against human U-251 cells assessed as inhibition of cell growth at 30 uM measured after 72 hrs by MTT assay relative to control. Format: functional. More on the design: scale not given: the % may be the effect or the level left.
Assay [9] relates to U-251. Briefly: Cytotoxicity against human U-251 cells at upto 30 uM measured after 2 hrs by CytTox 96 non-radioactive cytotoxicity assay. It is filed as functional, cell-based.
Assay [10] relates to U-251. Briefly: Antiproliferative activity against human U-251 cells assessed as reduction in cell viability at 30 uM measured after 72 hrs by Celltiter-glo ATP based assay. It is filed as functional.
Assay [11] has as its system U-251. In words: Antiproliferative activity against human U-251 cells assessed as increase in cell death at 30 uM measured after 48 hrs by MTT assay. It is filed as functional, cell-based.
Assay [12] deals with LOUCY. Briefly: Antiproliferative activity against human LOUCY cells assessed as reduction in cell viability at 30 uM measured after 72 hrs by Celltiter-glo ATP based assay. Format: functional.
Assay [13] has as its target Ephrin type-A receptor 2 (Homo sapiens) (UniProt P29317). Briefly: Induction of EphA2 phosphorylation in human U-251 cells. Format: cell-based.

The structures appear in SMILES notation. Active and inactive are the calls of the source. The calls are words filed in the database; no cut-off is given here.

`C[C@H](CCC(=O)N[C@H](CC(=O)O)Cc1cn(S(=O)(=O)c2ccccc2)c2ccccc12)[C@H]1CC[C@H]2[C@@H]3CC=C4C[C@@H](O)CC[C@]4(C)[C@H]3CC[C@]12C`: the 50% inhibitory concentration (IC50) in assay [1] was > 30 µM; in [2], 8.1 µM; in assay [3] it was > 30 µM. In assay [4], the Ki was found to be 2.2 µM.

With `C[C@H](CCC(=O)N[C@H](CC(=O)O)Cc1cn(S(=O)(=O)c2ccc(C(F)(F)F)cc2)c2ccccc12)[C@H]1CC[C@H]2[C@@H]3CC=C4C[C@@H](O)CC[C@]4(C)[C@H]3CC[C@]12C`, the result in assay [5], in [9] and in [13] was inactive. Besides, the IC50 in assay [1] is > 30 µM; in assay [2], 2.6 µM; in assay [3], > 30 µM. Further, the outcome in assay [6], in assay [7], in assay [10], in assay [11] and in [12] was Active. The Activity in assay [8] amounted to 100%. For the same compound, in assay [4], the inhibitory constant (Ki) turned out to be 2.8 µM.

For `C[C@H](CCC(=O)N[C@H](CC(=O)O)Cc1c[nH]c2ccccc12)[C@H]1CC[C@H]2[C@@H]3CC=C4C[C@@H](O)CC[C@]4(C)[C@H]3CC[C@]12C`, the IC50 in assay [1] came to 9.8 µM.
